According to PMC9698730 (Molecules, 2022):
Entries after “also recorded” stand apart in the source; their conditions may differ.

Legend:
Type in all cases: binding, SARS-CoV-2
NTD mutants = tested on: NTD mutants
R149A = tested on: R149A
R88A = tested on: R88A
H145A = tested on: H145A

Compound	effect of NTD mutations on SPR signal, in words (NTD mutants)	Mutations SPR (% Inhibition/NTD wt) (R149A)	Mutations SPR (% Inhibition/NTD wt) (R88A)	Mutations SPR (% Inhibition/NTD wt) (H145A)
RPKPQQF-OH [Substance P (1-7), Substance P (1-7) RPKPQQF-OH]	relatively small effects of the mutations with notable exceptions of W52A and Y111A			
COc1ccc2cc([C@H](C)C(=O)O)ccc2c1 [Naproxen, naproxen]		R88 (55%), R149 (44%)	R88 (55%), R149 (44%)	
Dihydrofolate [DHF]	Mutations H145A and R149A strongly reduced the signal; also recorded: strong effects of the mutations R92A, Y111A and R88A	H145 (96%), R149 (83%)		H145 (96%), R149 (83%)
